According to US20250108038A1 (priority 2023, published 2025):
“And” between values parts separate entries of the source, which are not always exact repeats. Identical values can stand only once.

Test system: Long Evans rats
Assay: Behavioral satiety sequence (BSS)
Format: in vivo, Long Evans rat
Conditions: for BSS scoring A (active), Time Bin 13 (60-65 TOTAL), AVG / BSS scoring A (active), Time Bin 14 (65-70 TOTAL), AVG / BSS scoring A (active), Time Bin 15 (70-75 TOTAL), AVG / BSS scoring A (active), Time Bin 16 (75-80 TOTAL), AVG / BSS scoring A (active), Time Bin 17 (80-85 TOTAL), AVG / BSS scoring A (active), Time Bin 18 (85-90 TOTAL), AVG / BSS scoring E (eating/drinking), Time Bin 13 (60-65 TOTAL), AVG / BSS scoring E (eating/drinking), Time Bin 14 (65-70 TOTAL), AVG / BSS scoring E (eating/drinking), Time Bin 15 (70-75 TOTAL), AVG / BSS scoring E (eating/drinking), Time Bin 16 (75-80 TOTAL), AVG / BSS scoring E (eating/drinking), Time Bin 17 (80-85 TOTAL), AVG / BSS scoring E (eating/drinking), Time Bin 18 (85-90 TOTAL), AVG / BSS scoring G (grooming), Time Bin 13 (60-65 TOTAL), AVG / BSS scoring G (grooming), Time Bin 14 (65-70 TOTAL), AVG / BSS scoring G (grooming), Time Bin 15 (70-75 TOTAL), AVG / BSS scoring G (grooming), Time Bin 16 (75-80 TOTAL), AVG / BSS scoring G (grooming), Time Bin 17 (80-85 TOTAL), AVG / BSS scoring G (grooming), Time Bin 18 (85-90 TOTAL), AVG / BSS scoring R (resting), Time Bin 13 (60-65 TOTAL), AVG / BSS scoring R (resting), Time Bin 14 (65-70 TOTAL), AVG / BSS scoring R (resting), Time Bin 15 (70-75 TOTAL), AVG / BSS scoring R (resting), Time Bin 16 (75-80 TOTAL), AVG / BSS scoring R (resting), Time Bin 17 (80-85 TOTAL), AVG / BSS scoring R (resting), Time Bin 18 (85-90 TOTAL), AVG: AVG of animals LT-1 to LT-12
Description: The Behavioural Satiety Sequence (BSS) is a technique used to evaluate physiological satiety. It is based on the expression of a sequence of behaviors including eating, grooming, locomotor activity, followed by resting, which are typically observed in rodents post-ingestion (Halford et al, 1998, Pharmacology Biochemistry and Behaviour. 61(2): 159-168). The BSS is a widely used model for determining the effects of novel pharmaceuticals on food intake and measures of satiety in rodents (Oliveira et al, 2011, Revista de Nutrição. 24(4) 619-628), and to discriminate the cause of reduced food intake following pharmacological manipulation. For example, treatments that may reduce food intake by non-specific mechanisms, such as immobility, malaise, and taste adulteration, will disrupt this sequence (Halford et al, 1998, Pharmacology Biochemistry and Behaviour. 61(2): 159-168).
Specifically, 12 male Long-Evans rats were food-deprived for 22 h with a 2 h feeding period each day. Rats were trained to consume daily food during the 2 h period over 25 days. The testing phase was initiated once the rats consistently consumed 16-18 g of food per day with ≤10% variance in amount of feed consumed. Feeding took place in designated individual boxes in a quiet room separate from the housing room. Continuous remote monitoring via video camera during feeding was used to assess the BSS. Food consumption was measured by weighing the total available food before and after the 2 h feeding window, correcting for spillage. Lorcaserin (1 mg/kg) was included as a reference control (Higgins et al, 2011, Neuropsychopharmacology. 37(5): 1177-1191). Subjects were tested using a repeated-measures, Latin square design with 2-3 days wash-out between treatment cycles.
On scheduled test days, animals were monitored remotely via video camera during the feeding access period. The occurrence of four mutually exclusive behaviors (eating/drinking, grooming, active, rest) were individually scored. Over the 2 h feeding period, behaviors were assessed every 30 seconds. Scores were compiled into 23 5 min timebins (timebin 24 was removed due to early removal of animals) and the frequency of each behavior within each timebin was calculated to determine a temporal frequency of each measure (Rodgers et al, 2010, Pharmacology Biochemistry and Behaviour. 97: 3-14). Percentage time was plotted for each behavioral sequence in each timebin to compare between treatment groups (Higgins et al, 2011, Neuropsychopharmacology. 37(5): 1177-1191).

[1] = 0.1 mg/kg, raw score per animal LT-1 to LT-12
[2] = 0.3 mg/kg, raw score per animal LT-1 to LT-12

Clc1ccc(C2(OCC3OCCO3)c3ccccc3C3=NCCN32)cc1 (stereo not drawn) [Compound I-19]
BSS scoring A (active), Time Bin 13 (60-65 TOTAL), AVG (0.1 mg/kg): 0.20 | BSS scoring A (active), Time Bin 14 (65-70 TOTAL), AVG (0.1 mg/kg): 0.10 | BSS scoring A (active), Time Bin 15 (70-75 TOTAL), AVG (0.1 mg/kg): 0.13 | BSS scoring A (active), Time Bin 16 (75-80 TOTAL), AVG (0.1 mg/kg): 0.23 | BSS scoring A (active), Time Bin 17 (80-85 TOTAL), AVG (0.1 mg/kg): 0.36 | BSS scoring A (active), Time Bin 18 (85-90 TOTAL), AVG (0.1 mg/kg): 0.22 | BSS scoring E (eating/drinking), Time Bin 13 (60-65 TOTAL), AVG (0.1 mg/kg): 0.74 | BSS scoring E (eating/drinking), Time Bin 14 (65-70 TOTAL), AVG (0.1 mg/kg): 0.83 | BSS scoring E (eating/drinking), Time Bin 15 (70-75 TOTAL), AVG (0.1 mg/kg): 0.83 | BSS scoring E (eating/drinking), Time Bin 16 (75-80 TOTAL), AVG (0.1 mg/kg): 0.63 | BSS scoring E (eating/drinking), Time Bin 17 (80-85 TOTAL), AVG (0.1 mg/kg): 0.58 | BSS scoring E (eating/drinking), Time Bin 18 (85-90 TOTAL), AVG (0.1 mg/kg): 0.71 | BSS scoring G (grooming), Time Bin 13 (60-65 TOTAL), AVG (0.1 mg/kg): 0.03 | BSS scoring G (grooming), Time Bin 14 (65-70 TOTAL), AVG (0.1 mg/kg): 0.05 | BSS scoring G (grooming), Time Bin 15 (70-75 TOTAL), AVG (0.1 mg/kg): 0.01 | BSS scoring G (grooming), Time Bin 16 (75-80 TOTAL), AVG (0.1 mg/kg): 0.05 | BSS scoring G (grooming), Time Bin 17 (80-85 TOTAL), AVG (0.1 mg/kg): 0.05 | BSS scoring G (grooming), Time Bin 18 (85-90 TOTAL), AVG (0.1 mg/kg): 0.02 | BSS scoring R (resting), Time Bin 13 (60-65 TOTAL), AVG (0.1 mg/kg): 0.03 | BSS scoring R (resting), Time Bin 14 (65-70 TOTAL), AVG (0.1 mg/kg): 0.02 | BSS scoring R (resting), Time Bin 15 (70-75 TOTAL), AVG (0.1 mg/kg): 0.03 | BSS scoring R (resting), Time Bin 16 (75-80 TOTAL), AVG (0.1 mg/kg): 0.08 | BSS scoring R (resting), Time Bin 17 (80-85 TOTAL), AVG (0.1 mg/kg): 0.02 | BSS scoring R (resting), Time Bin 18 (85-90 TOTAL), AVG (0.1 mg/kg): 0.06 | BSS scoring A (active), Time Bin 13 (60-65 TOTAL) [1]: 0 (5×) and 4 (2×) and 5 and 1 (3×) and 8 | BSS scoring A (active), Time Bin 14 (65-70 TOTAL) [1]: 0 (6×) and 1 (2×) and 4 and 2 (3×) | BSS scoring A (active), Time Bin 15 (70-75 TOTAL) [1]: 5 and 3 (3×) and 0 (7×) and 2 | BSS scoring A (active), Time Bin 16 (75-80 TOTAL) [1]: 4 (3×) and 3 and 5 (2×) and 0 (4×) and 2 and 1 | BSS scoring A (active), Time Bin 17 (80-85 TOTAL) [1]: 0 (3×) and 3 and 9 (2×) and 1 and 6 and 5 and 4 (2×) and 2 | BSS scoring A (active), Time Bin 18 (85-90 TOTAL) [1]: 0 (4×) and 1 (2×) and 7 and 3 and 5 (2×) and 2 (2×) | BSS scoring E (eating/drinking), Time Bin 13 (60-65 TOTAL) [1]: 8 (4×) and 5 (2×) and 6 and 10 (3×) and 9 and 2 | BSS scoring E (eating/drinking), Time Bin 14 (65-70 TOTAL) [1]: 10 (3×) and 8 (3×) and 9 (3×) and 5 and 7 (2×) | BSS scoring E (eating/drinking), Time Bin 15 (70-75 TOTAL) [1]: 5 and 7 (2×) and 10 (4×) and 9 (3×) and 6 and 8 | BSS scoring E (eating/drinking), Time Bin 16 (75-80 TOTAL) [1]: 6 (3×) and 3 (3×) and 10 and 9 (2×) and 8 (2×) and 4 | BSS scoring E (eating/drinking), Time Bin 17 (80-85 TOTAL) [1]: 10 (2×) and 7 and 0 and 9 (2×) and 3 and 4 and 5 (2×) and 6 and 2 | BSS scoring E (eating/drinking), Time Bin 18 (85-90 TOTAL) [1]: 10 (4×) and 8 (2×) and 7 (3×) and 0 and 5 and 3 | BSS scoring G (grooming), Time Bin 13 (60-65 TOTAL) [1]: 0 (9×) and 1 (3×) | BSS scoring G (grooming), Time Bin 14 (65-70 TOTAL) [1]: 0 (6×) and 1 (6×) | BSS scoring G (grooming), Time Bin 15 (70-75 TOTAL) [1]: 0 (11×) and 1 | BSS scoring G (grooming), Time Bin 16 (75-80 TOTAL) [1]: 0 (9×) and 4 and 1 (2×) | BSS scoring G (grooming), Time Bin 17 (80-85 TOTAL) [1]: 0 (7×) and 1 (4×) and 2 | BSS scoring G (grooming), Time Bin 18 (85-90 TOTAL) [1]: 0 (10×) and 1 (2×) | BSS scoring R (resting), Time Bin 13 (60-65 TOTAL) [1]: 2 and 0 (9×) and 1 (2×) | BSS scoring R (resting), Time Bin 14 (65-70 TOTAL) [1]: 0 (10×) and 1 (2×) | BSS scoring R (resting), Time Bin 15 (70-75 TOTAL) [1]: 0 (9×) and 1 (3×) | BSS scoring R (resting), Time Bin 16 (75-80 TOTAL) [1]: 0 (5×) and 2 and 3 and 1 (5×) | BSS scoring R (resting), Time Bin 17 (80-85 TOTAL) [1]: 0 (10×) and 1 (2×) | BSS scoring R (resting), Time Bin 18 (85-90 TOTAL) [1]: 0 (7×) and 1 (4×) and 3 | BSS scoring A (active), Time Bin 13 (60-65 TOTAL), AVG (0.3 mg/kg): 0.09 | BSS scoring A (active), Time Bin 14 (65-70 TOTAL), AVG (0.3 mg/kg): 0.13 | BSS scoring A (active), Time Bin 15 (70-75 TOTAL), AVG (0.3 mg/kg): 0.32 | BSS scoring A (active), Time Bin 16 (75-80 TOTAL), AVG (0.3 mg/kg): 0.13 | BSS scoring A (active), Time Bin 17 (80-85 TOTAL), AVG (0.3 mg/kg): 0.17 | BSS scoring A (active), Time Bin 18 (85-90 TOTAL), AVG (0.3 mg/kg): 0.23 | BSS scoring E (eating/drinking), Time Bin 13 (60-65 TOTAL), AVG (0.3 mg/kg): 0.81 | BSS scoring E (eating/drinking), Time Bin 14 (65-70 TOTAL), AVG (0.3 mg/kg): 0.80 | BSS scoring E (eating/drinking), Time Bin 15 (70-75 TOTAL), AVG (0.3 mg/kg): 0.56 | BSS scoring E (eating/drinking), Time Bin 16 (75-80 TOTAL), AVG (0.3 mg/kg): 0.79 | BSS scoring E (eating/drinking), Time Bin 17 (80-85 TOTAL), AVG (0.3 mg/kg): 0.69 | BSS scoring E (eating/drinking), Time Bin 18 (85-90 TOTAL), AVG (0.3 mg/kg): 0.62 | BSS scoring G (grooming), Time Bin 13 (60-65 TOTAL), AVG (0.3 mg/kg): 0.03 | BSS scoring G (grooming), Time Bin 14 (65-70 TOTAL), AVG (0.3 mg/kg): 0.03 | BSS scoring G (grooming), Time Bin 15 (70-75 TOTAL), AVG (0.3 mg/kg): 0.04 | BSS scoring G (grooming), Time Bin 16 (75-80 TOTAL), AVG (0.3 mg/kg): 0.01 | BSS scoring G (grooming), Time Bin 17 (80-85 TOTAL), AVG (0.3 mg/kg): 0.05 | BSS scoring G (grooming), Time Bin 18 (85-90 TOTAL), AVG (0.3 mg/kg): 0.10 | BSS scoring R (resting), Time Bin 13 (60-65 TOTAL), AVG (0.3 mg/kg): 0.07 | BSS scoring R (resting), Time Bin 14 (65-70 TOTAL), AVG (0.3 mg/kg): 0.05 | BSS scoring R (resting), Time Bin 15 (70-75 TOTAL), AVG (0.3 mg/kg): 0.08 | BSS scoring R (resting), Time Bin 16 (75-80 TOTAL), AVG (0.3 mg/kg): 0.08 | BSS scoring R (resting), Time Bin 17 (80-85 TOTAL), AVG (0.3 mg/kg): 0.09 | BSS scoring R (resting), Time Bin 18 (85-90 TOTAL), AVG (0.3 mg/kg): 0.06 | BSS scoring A (active), Time Bin 13 (60-65 TOTAL) [2]: 0 (7×) and 2 and 3 and 1 (2×) and 4 | BSS scoring A (active), Time Bin 14 (65-70 TOTAL) [2]: 1 (4×) and 3 and 0 (6×) and 8 | BSS scoring A (active), Time Bin 15 (70-75 TOTAL) [2]: 0 (2×) and 4 (2×) and 6 and 8 and 1 (2×) and 3 (3×) and 5
